For one test, the system named is HT-29. As to the kind of experiment: Cytotoxicity against human HT-29 cells after 72 hrs by methylene blue assay. It is filed as functional, cell-based. The conditions noted are these: HT-29, 72 h.
The next test concerns KB. The test is described as follows: Cytotoxicity against human KB cells after 72 hrs by methylene blue assay. Type of test: functional, cell-based.

On to `CC1(C)CC[C@]2(C(=O)O)CC[C@]3(C)C(=CC[C@@H]4[C@@]5(C)CC[C@H](OC(=O)/C=C\c6ccc(O)cc6)[C@@](C)(CO)[C@@H]5CC[C@]43C)[C@@H]2C1`, for which the IC50 in the test with HT-29 is 2100 nM; with KB it was 1200 nM.

Turning to `COc1cc([C@@H]2c3cc4c(cc3[C@@H](O[C@@H]3O[C@@H]5CO[C@@H](C)O[C@H]5[C@H](O)[C@H]3O)[C@H]3COC(=O)[C@H]23)OCO4)cc(OC)c1O` [ETOPOSIDE], the IC50 was 2300 nM with HT-29 and 1100 nM in the test with KB.

For `CC1(C)CC[C@]2(C(=O)O)CC[C@]3(C)C(=CC[C@@H]4[C@@]5(C)CC[C@H](O)[C@@](C)(COC(=O)/C=C/c6ccc(O)cc6)[C@@H]5CC[C@]43C)[C@@H]2C1`, the IC50 in the test on HT-29 came to 2400 nM; with KB it was 1300 nM.

On to `CC1(C)CC[C@]2(C(=O)O)CC[C@]3(C)C(=CC[C@@H]4[C@@]5(C)CC[C@H](O)[C@@](C)(COC(=O)/C=C\c6ccc(O)cc6)[C@@H]5CC[C@]43C)[C@@H]2C1`, for which the values for the IC50 in the test with HT-29 and in the test with KB were 3600 nM and 1600 nM, respectively.

In general, IC50 refers to the point on the concentration scale where inhibition reaches its midpoint. Low readings indicate greater potency in that assay, high ones weaker potency in that assay.

The record behind these values is ChEMBL document CHEMBL1146465, “Three new oleanane-type triterpenes from Ludwigia octovalvis with cytotoxic activity against two human cancer cell lines” (J Nat Prod, 2004).
